Source: patent publication US6750224B1, “Antibacterial optically pure benzoquinolizine carboxylic acids, processes, compositions and methods of treatment” (priority 1999, dated 2004)
Values after ≈ are worked out from the molar mass of the structure shown. Like-named read-outs stand apart in the source and are kept apart here. Blank lines part the entries; values can stand above or below the molecule they belong to.

Columns and labels:
[1] = Equilibrium moisture content determination at several relative humidities; type: physicochemical; settings: Karl Fischer
Text: Silica (anhydrous) and three saturated solutions of electrolytes prepared by dissolving the respective salts in water were each introduced into different desiccators to control the inner relative humidity to a specific value as represented in the following Table 7. Then, the equilibrium moisture contents of S-(−)-9-fluoro-6,7-dihydro-8-(4-hydroxypiperidin-1-yl)-5-methyl-1-oxo-1H,5H-benzo[i,j]quinolizine-2-carboxylic acid anhydrate and S-(−)-9-fluoro-6,7-dihydro-8-(4-hydroxypiperidin-1-yl)-5-methyl-1-oxo-1H,5H-benzo[i,j]quinolizine-2-carboxylic acid 0.2 hydrate prepared in Examples 1 and 2 respectively were determined at several relative humidities.
Specifically, 1 g of the sample was spread on a pre-weighed petridish and the total weight was accurately measured, then both the samples were placed in each desiccator of Table 8 The dessicators were allowed to stand at normal temperature for at least 3 days and the weight was measured agingly over this period. The weight changes were tabulated. At the end of 3 days all samples were taken to be weighed. The moisture content of each sample was determined by Karl Fischer analysis. Equilibrium moisture content at each relative humidity is represented in FIG. 1 (anhydrate) and FIG. 2 (0.2 hydrate).

[2] = Chemical stability under heating (HPLC); type: physicochemical
Procedure: The anhydride and hydrates were each introduced into a glass vial and maintained at 70° C. Thus the thermal decomposition with elapsed time was analysed by HPLC and the results thus obtained are described in Table 8

[3] = system: S.aureus strain bearing Nor A efflux pump; type: cell-based; settings: Nor A efflux pump strain vs strain devoid of efflux pump
Procedure: Using this set of MIC values, % loss in potency due to efflux was calculated for each of the fluoroquinolone in Table 5

[4] = system: MRSA STA-4; experiment: In-vitro antimicrobial activity test (MIC, NCCLS); type: cell-based, Staphylococcus aureus
Text: (§1) The test method was in accordance with the standard NCCLS protocol.

[5] = system: Mupirocin-resistant Staph STA-34; experiment: In-vitro antimicrobial activity test (MIC, NCCLS); type: cell-based, Staphylococcus aureus
Text: as §1

[6] = system: MRSE STE-22; experiment: In-vitro antimicrobial activity test (MIC, NCCLS); type: cell-based, Staphylococcus epidermidis
Text: as §1

[7] = system: Bacteroides fragilis; experiment: In-vitro antimicrobial activity test (MIC, NCCLS); type: cell-based
Text: as §1

[8] = system: Chryseobacterium meningosepticum; experiment: In-vitro antimicrobial activity test (MIC, NCCLS); type: cell-based
Text: as §1

[9] = system: Corynebacterium jeikeium; experiment: In-vitro antimicrobial activity test (MIC, NCCLS); type: cell-based
Text: as §1

[10] = system: Enterococcus faecalis ATCC 29212; experiment: In-vitro antimicrobial activity test (MIC, NCCLS); type: cell-based
Text: as §1

[11] = system: Enterococcus faecium; experiment: In-vitro antimicrobial activity test (MIC, NCCLS); type: cell-based
Text: as §1

[12] = system: Escherichia coli ATCC 25922; experiment: In-vitro antimicrobial activity test (MIC, NCCLS); type: cell-based
Text: as §1

[13] = system: Haemophilus influenzae; experiment: In-vitro antimicrobial activity test (MIC, NCCLS); type: cell-based
Text: as §1

[14] = system: Mycobacterium avium; experiment: In-vitro antimicrobial activity test (MIC, NCCLS); type: cell-based
Text: as §1

[15] = system: Mycobacterium intracellulare; experiment: In-vitro antimicrobial activity test (MIC, NCCLS); type: cell-based
Text: as §1

[16] = system: Mycobacterium tuberculosis ATCC 27294; experiment: In-vitro antimicrobial activity test (MIC, NCCLS); type: cell-based
Text: as §1

[17] = system: Propioni bacterium acnes; experiment: In-vitro antimicrobial activity test (MIC, NCCLS); type: cell-based
Text: as §1

[18] = system: Pseudomonas aeruginosa; experiment: In-vitro antimicrobial activity test (MIC, NCCLS); type: cell-based
Text: as §1

[19] = system: Serratia marcescens; experiment: In-vitro antimicrobial activity test (MIC, NCCLS); type: cell-based
Text: as §1

[20] = system: Staphylococcus aureus ATCC 25923; experiment: In-vitro antimicrobial activity test (MIC, NCCLS); type: cell-based
Text: as §1

[21] = system: Streptococcus pneumoniae ATCC 6303; experiment: In-vitro antimicrobial activity test (MIC, NCCLS); type: cell-based
Text: as §1

[22] = system: Streptococcus pyogenes; experiment: In-vitro antimicrobial activity test (MIC, NCCLS); type: cell-based
Text: as §1

[23] = system: Viridans group Streptococci; experiment: In-vitro antimicrobial activity test (MIC, NCCLS); type: cell-based
Text: as §1

[24] = system: Acinetobacter 3109; experiment: Effect of pH on potency of fluoroquinolones (MIC at pH 5.5 and 7.0); type: cell-based; settings: MIC pH 7 vs pH 5.5
Text: (§2) The test method was in accordance with the standard NCCLS protocol employing test media adjusted at pH 5.5 and 7.0.

[25] = system: E. coli 2015; experiment: as above; type: cell-based; settings: MIC pH 7 vs pH 5.5
Text: as §2

[26] = system: E. coli 25922; experiment: as above; type: cell-based; settings: MIC pH 7 vs pH 5.5
Text: as §2

[27] = system: E. faecalis; experiment: as above; type: cell-based; settings: MIC pH 7 vs pH 5.5
Text: as §2

[28] = system: Klebsiella 24037; experiment: as above; type: cell-based; settings: MIC pH 7 vs pH 5.5
Text: as §2

[29] = system: P. mirabilis 37; experiment: as above; type: cell-based; settings: MIC pH 7 vs pH 5.5
Text: as §2

[30] = system: P. rettgeri N 1764; experiment: as above; type: cell-based; settings: MIC pH 7 vs pH 5.5
Text: as §2

[31] = system: P. vulgaris 66; experiment: as above; type: cell-based; settings: MIC pH 7 vs pH 5.5
Text: as §2

[32] = system: Ps. Aeruginosa; experiment: as above; type: cell-based; settings: MIC pH 7 vs pH 5.5
Text: as §2

[33] = system: S. aureus 1199-B; experiment: as above; type: cell-based; settings: MIC pH 7 vs pH 5.5
Text: as §2

[34] = system: S. aureus 25923; experiment: as above; type: cell-based; settings: MIC pH 7 vs pH 5.5
Text: as §2

[35] = system: Serratia marcescens 2702; experiment: as above; type: cell-based; settings: MIC pH 7 vs pH 5.5
Text: as §2

[36] = in vivo; set-up: species or system Swiss mice; settings: Swiss, mouse, po, 30 mg/kg
Procedure: The blood levels of RS-(±)-Nadifloxacin and S-(−)-Nadifloxacin administered orally to Swiss mice at a dose of 30mg/kg are shown in Table 3 with respect to the AUC (μg/ml.hr), monitored from 15 minutes to 4 hours.

[37] = Acute intravenous toxicity in mice; settings: mouse, in vivo, iv

Structure (SMILES): C[C@H]1CCc2c(N3CCC(O)CC3)c(F)cc3c(=O)c(C(=O)O)cn1c23.O [Example 2, S-(−)-9-fluoro-6,7-dihydro-8-(4-hydroxypiperidin-1-yl)-5-methyl-1-oxo-1H,5H-benzo[i,j]quinolizine-2-carboxylic acid 0.2 hydrate]
equilibrium moisture content ([1]; relative humidity 20% to 95%): around 1%
Thermal stability with elapsed time at 70° C. [2]: 98.7%
chemical stability at 70° C., in words [2]: same degree of chemical stability as the anhydrate

Structure (SMILES): NC1CCN(c2c(F)cc3c(=O)c(C(=O)O)cn(C4CC4)c3c2Cl)C1 (stereo not shown) [Clinafloxacin]
% loss in potency for S. aureus bearing Efflux pump [3]: 87.5%

Structure (SMILES): C[C@H]1COc2c(N3CCN(C)CC3)c(F)cc3c(=O)c(C(=O)O)cn1c23 [Levofloxacin]
MIC [4]: > 12.5 µg/mL
MIC [5]: 12.5 µg/mL (≈ 34.6 µM)
MIC [6]: > 12.5 µg/mL
MIC [7]: 6.25 µg/mL (≈ 17.3 µM)
MIC [8]: 6.25 µg/mL (≈ 17.3 µM)
MIC [9]: 0.4 µg/mL (≈ 1.11 µM)
MIC [10]: 0.8 µg/mL (≈ 2.21 µM)
MIC [11]: 1.56 µg/mL (≈ 4.32 µM)
MIC [12]: 0.05 µg/mL (≈ 0.138 µM)
MIC [13]: 0.03 µg/mL (≈ 0.083 µM)
MIC [14]: 12.5 µg/mL (≈ 34.6 µM)
MIC [15]: 0.8 µg/mL (≈ 2.21 µM)
MIC [16]: 0.4 µg/mL (≈ 1.11 µM)
MIC [17]: 1 µg/mL (≈ 2.77 µM)
MIC [18]: 3.12 µg/mL (≈ 8.63 µM)
MIC [19]: 0.1 µg/mL (≈ 0.277 µM)
MIC [20]: 0.2 µg/mL (≈ 0.553 µM)
MIC [21]: 0.8 µg/mL (≈ 2.21 µM)
MIC [22]: 0.4 µg/mL (≈ 1.11 µM)
MIC [23]: 1.56 µg/mL (≈ 4.32 µM)
% change in potency at pH 5.5, loss (−)/gain (+) [24]: −94%
% change in potency at pH 5.5, loss (−)/gain (+) [25]: −87.5%
% change in potency at pH 5.5, loss (−)/gain (+) [26]: −96%
% change in potency at pH 5.5, loss (−)/gain (+) [27]: −75%
% change in potency at pH 5.5, loss (−)/gain (+) [28]: −94%
% change in potency at pH 5.5, loss (−)/gain (+) [29]: −94%
% change in potency at pH 5.5, loss (−)/gain (+) [30]: −94%
% change in potency at pH 5.5, loss (−)/gain (+) [31]: −94%
% change in potency at pH 5.5, loss (−)/gain (+) [32]: −50%
% change in potency at pH 5.5, loss (−)/gain (+) [33]: −75%
% change in potency at pH 5.5, loss (−)/gain (+) [34]: −75%
% change in potency at pH 5.5, loss (−)/gain (+) [35]: −98%

MIC [4]: 0.4 µg/mL (≈ 0.799 µM)
MIC [5]: > 400 µg/mL
MIC [6]: 0.2 µg/mL (≈ 0.399 µM)
MIC [9]: > 12.5 µg/mL
MIC [10]: > 12.5 µg/mL
MIC [11]: > 0.8 µg/mL
MIC [17]: > 1000 µg/mL
MIC [20]: 0.4 µg/mL (≈ 0.799 µM)
MIC [21]: 0.2 µg/mL (≈ 0.399 µM)
MIC [22]: 0.025 µg/mL (≈ 0.0499 µM)
MIC [23]: 0.2 µg/mL (≈ 0.399 µM)
Structure (SMILES): C/C(=C\C(=O)OCCCCCCCCC(=O)O)C[C@@H]1OC[C@H](C[C@@H]2O[C@H]2[C@@H](C)[C@H](C)O)[C@@H](O)[C@H]1O [Mupirocin]

Structure (SMILES): C[C@H]1CCc2c(N3CCC(O)CC3)c(F)cc3c(=O)c(C(=O)O)cn1c23 [Example 1, S-(−)-9-fluoro-6,7-dihydro-8-(4-hydroxypiperidin-1-yl)-5-methyl-1-oxo-1H,5H-benzo[i,j]quinolizine-2-carboxylic acid anhydrate]
equilibrium moisture content ([1]; relative humidity 20% to 58%): around 0.1%
equilibrium moisture content ([1]; relative humidity 75% to 95%): around 1%
Thermal stability with elapsed time at 70° C. ([2]; 1 week, HPLC): 98.7%
Thermal stability with elapsed time at 70° C. ([2]; 2 week, HPLC): 98.6%
Thermal stability with elapsed time at 70° C. ([2]; Initial, HPLC): 98.9%

Structure (SMILES): C[C@H]1CCc2c(N3CCC(O)CC3)c(F)cc3c(=O)c(C(=O)O)cn1c23.C[C@H]1CCc2c(N3CCC(O)CC3)c(F)cc3c(=O)c(C(=O)O)cn1c23.O [Example 3, S-(−)-9-fluoro-6,7-dihydro-8-(4-hydroxypiperidin-1-yl)-5-methyl-1-oxo-1H,5H-benzo[i,j]quinolizine-2-carboxylic acid 0.5 hydrate]
Thermal stability with elapsed time at 70° C. [2]: 98.1%
chemical stability at 70° C., in words [2]: decompose with time

Structure (SMILES): CC1CCc2c(N3CCC(O)CC3)c(F)cc3c(=O)c(C(=O)O)cn1c23 (racemic) [RS-(±)-Nadifloxacin, (±)-9-fluoro-8-(4-hydroxypiperidin-1-yl)-5-methyl-6,7-dihydro-1-oxo-1H-5H-benzo[i,j]quinolizine-2-carboxylic acid]
MIC [4]: 0.8 µg/mL (≈ 2.22 µM)
MIC [5]: 1.56 µg/mL (≈ 4.33 µM)
MIC [6]: 1.56 µg/mL (≈ 4.33 µM)
MIC [7]: 3.12 µg/mL (≈ 8.66 µM)
MIC [8]: 1.56 µg/mL (≈ 4.33 µM)
MIC [9]: 0.2 µg/mL (≈ 0.555 µM)
MIC [10]: 0.4 µg/mL (≈ 1.11 µM)
MIC [11]: 0.8 µg/mL (≈ 2.22 µM)
MIC [12]: 0.8 µg/mL (≈ 2.22 µM)
MIC [13]: 0.05 µg/mL (≈ 0.139 µM)
MIC [14]: 6.25 µg/mL (≈ 17.3 µM)
MIC [15]: 3.12 µg/mL (≈ 8.66 µM)
MIC [16]: 1.56 µg/mL (≈ 4.33 µM)
MIC [17]: 0.2 µg/mL (≈ 0.555 µM)
MIC [18]: 3.12 µg/mL (≈ 8.66 µM)
MIC [19]: 1.56 µg/mL (≈ 4.33 µM)
MIC [20]: 0.05 µg/mL (≈ 0.139 µM)
MIC [21]: 0.4 µg/mL (≈ 1.11 µM)
MIC [22]: 0.4 µg/mL (≈ 1.11 µM)
MIC [23]: 0.4 µg/mL (≈ 1.11 µM)
AUC [36]: 16900 ng·h/mL
LD50 [37]: 311 mg/kg
